Test results from patent US20230416191A1, “Compounds, Compositions and Methods for the Treatment of CREB-dependent Diseases” (Sereno Sciences, Inc., priority 2022, published 2023).
Read-outs that look alike come from different tables or passages of the source.

Key:
[1] = test system: CREB-mediated gene transcription; test: Inhibition of CREB-mediated gene transcription (CRE Renilla luciferase reporter, forskolin stimulated); assay type: cell-based; details: HEK293T CRE luciferase reporter cells, forskolin 10 uM, 5 h
Procedure: The compounds were tested for their inhibition of CREB-mediated gene transcription according to the method described in Xie et al. J. Med. Chem. 2015, 58, 5075-5087. Generally, HEK293T cell transfected with luciferase reporter cell lines under CRE control were obtained from commercial sources. The cells were plated into 96-well plates (1-[…] cells/well). The cells were allowed to attach to the bottom of the wells overnight, when compounds of different concentrations were added to the cells. Forskolin (10 uM, LC Laboratories, Woburn, Mass.) was added 30 min after the addition of the compounds. The cells were then incubated at 37° C. for 5 h. The media in the wells were removed and the cells were then lysed in 30 µl of 1×Renilla luciferase lysis buffer (Promega, Madison, Wis.). To measure Renilla luciferase activity, five uL of the lysate was combined with 30 uI of benzyl-coelenterazine (Nanolight, Pinetop, Ariz.) solution in PBS (pH 7.4, 10 ug/mL). The sample protein concentration was determined by Dye Reagent Concentrate (Bio-Rad, Hercules, Calif). The Renilla luciferase activity was normalized to protein content in each well and expressed as relative luciferase unit/ug protein (RLU/ug protein). The IC50 was derived from non-linear regression analysis of the RLU/ug protein-concentration curve.

HL-60 cells = test: AML xenograft model; assay type: in vivo; details: HL-60 xenograft in NSG mice, 2 mg/kg IV daily
Procedure: For AML xenograft mouse experiments, HL-60 cells (2×10^6) expressing firefly luciferase and GFP are injected through the tail vein into 4-6 week old NOD. Cg-Prkdc^acid Il2rg^tmlWjlSzJ (NSG) mice. Mice are then treated with 2 mg/kg SRS-1006 or 10% DMSO, injected intravenously by tail vein daily seven days after AML cell injection, until death or an endpoint is reached (moribundity) in accordance with the animal care institutional guidelines. Leukemia progression in mice at the indicated time points is monitored using an in vivo IVIS 100 bioluminescenceoptical imaging system (Xenogen Corporation). D-Luciferin (Promega) dissolved in sterile phosphate-buffered saline was injected intraperitoneally at a dose of […], 15 minutes before measuring the luminescent signal. General anesthesia is induced with […] and continued during the procedure using a nose cone. Analysis is performed on Living Image In Vivo imaging software (Perkin-Elmer). Bone marrow is aspirated from bone marrow cavities, and GFP+cells is sorted using the FACSCalibur flow cytometer (BD Biosciences).

MCF-7 = test: Cytotoxicity assay (Cell-titer-Glow, 72 hr); assay type: cell-based; details: Homo sapiens, MCF7; breast cancer line MCF-7, 72hr; read-out: IC50 for inhibition of MCF-7
Procedure: (§1) The cells were obtained from ATCC, IMDM was obtained from Lonza, and FBS was obtained from Hyclone. Cell-titer-Glow for cytotoxicity was from Promega. Sterile 96-well tissue culture plates were from Corning. Different concentrations of the test compounds were tested in triplicate wells of either 96-well or 384-well tissue culture plates. The screening was repeated two additional times. The cells from ATCC were thawed, washed once with complete media, and cultured in T75 flask in a 37C CO2 incubator. Cell density was maintained between 5×10 5 to 1×10^6 cells/ml. Compounds were individually weighed and dissolved in DMSO to obtain 10 mM solutions of each and stored at −20° C. until used. To select concentrations of the compounds for cytotoxicity, all the compounds were initially tested at 100 μM and 30 μM in a 48 hr cytotoxicity assay. Two microliter of each concentration of the test compounds were transferred into triplicate wells of a 96-well tissue culture plate. Into each well 100 μof the cell suspension was added, the plate was lidded and incubated at 37° C. in a 5% CO2 incubator maintained at 95% humidity After 72hr of incubation, the plate was removed from the incubator, and the cell viability was determined using Cell-titer-glow reagent as per the protocol described in the kit manual. Signals from the plate was measured using Victor-II plate reader. The raw data from the plate reader were exported to Excel. For each concentration of the drug tested the average signal and SD from the triplicate wells, as well as the percent cytotoxicity were calculated. The resulting data were exported to Prism-graph-pad, the % cytotoxicity was plotted against log concentration and the resulting curves were fitted using non-linear dose response fit and the resulting IC50 values were extracted.

HL-60 = test: Cytotoxicity assay (Cell-titer-Glow, 72 hr); assay type: cell-based; details: Homo sapiens; leukemia cell line HL-60, 72hr; read-out: IC50 for inhibition of HL-60
Procedure: as §1

Hs587T = test: Cytotoxicity assay (Cell-titer-Glow, 72 hr); assay type: cell-based; details: breast cancer line Hs587T, read-out: IC50 for inhibition of Hs587T
Procedure: as §1

Hep3B = test: Cytotoxicity assay (Cell-titer-Glow, 72 hr); assay type: cell-based; details: Homo sapiens, Hep3B cells, read-out: IC50 for inhibition of Hep3B
Procedure: as §1

A549 = test: Cytotoxicity assay (Cell-titer-Glow, 72 hr); assay type: cell-based; details: Homo sapiens, A549 cells, read-out: IC50 for inhibition of A549
Procedure: as §1

MV-411 = test: Cytotoxicity assay (Cell-titer-Glow, 72 hr); assay type: cell-based; details: Homo sapiens, MV4-11; leukemia cell line MV-411, 72hr; read-out: IC50 for inhibition of MV-411
Procedure: as §1

NaLM6 = test: Cytotoxicity assay (Cell-titer-Glow, 72 hr); assay type: cell-based; details: Homo sapiens, NALM-6; leukemia cell line NaLM6, 72hr; read-out: IC50 for inhibition of NaLM6
Procedure: as §1

MiaPaCa2 = test: Cytotoxicity assay (Cell-titer-Glow, 72 hr); assay type: cell-based; details: Homo sapiens, MIA PaCa-2, MiaPaCa2 cells, read-out: IC50 for inhibition of MiaPaCa2
Procedure: as §1

BT-474 = test: Cytotoxicity assay (Cell-titer-Glow, 72 hr); assay type: cell-based; details: Homo sapiens; breast cancer line BT-474, 72hr; read-out: IC50 for inhibition of BT-474
Procedure: as §1

KG-1 = test: Cytotoxicity assay (Cell-titer-Glow, 72 hr); assay type: cell-based; details: Homo sapiens; leukemia cell line KG-1, 72hr; read-out: IC50 for inhibition of KG-1
Procedure: as §1

[2] = Mouse pharmacokinetics, plasma by LC-MS/MS; assay type: in vivo, mice (C57BL/6); details: female C57BL/6 mice
Procedure: The compound was formulated in an aqueous solution containing 5% Tween-80, 10% DMSO. Female mice (C57BL/6) were given a single dose of the formulation at 5 mg/kg (IV), 10 mg/kg (IP) and 20 mg/kg (orally). At different time points (0.083, 0.25, 0.5, 1, 2, 4, 8, 24 h) post drug administration, blood was collected and the plasma was prepared. The samples were stored at −80° C. until analysis. The drug concentration in the plasma was analyzed by LC-MS/MS.

[3] = in vivo; cited from earlier work

NCCCOc1cc2ccccc2cc1C(=O)NCCOc1cc2ccccc2cc1C(=O)Nc1c(F)cccc1F [SRS-1007]
IC50 [1]: 0.41 µM | IC50 ([1]; Homo sapiens, HEK-293T): 0.45 µM

N#Cc1ccc(NC(=O)c2cc3ccccc3cc2OCCNC(=O)c2cc3ccccc3cc2OCCCN)cc1 [SRS-1004]
IC50 ([1]; Homo sapiens, HEK-293T): 1.2 µM

NCCCOc1cc2ccccc2cc1C(=O)NCCOc1cc2ccccc2cc1C(=O)Nc1ccccc1 [SRS-1001]
IC50 ([1]; Homo sapiens, HEK-293T): 1.26 µM

Cl.NCCCOc1cc2ccccc2cc1C(=O)NCCOc1cc2ccccc2cc1C(=O)Nc1ccccc1F [SRS-1006]
IC50 ([1]; Homo sapiens, HEK-293T): 0.18 µM | median survival in Kaplan-Meier analysis (HL-60 cells): significantly prolonged | disease burden by bioluminescence imaging (HL-60 cells; compared to control): less disease burden | IC50 (MCF-7): 1.47 µM | IC50 (HL-60): 0.65 µM | IC50 (Hs587T): 3.69 µM | IC50 (Hep3B): 1.46 µM | IC50 (A549): 1.49 µM | IC50 (MV-411): 0.99 µM | IC50 (NaLM6): 0.97 µM | IC50 (MiaPaCa2): 1.7 µM | IC50 (BT-474): 5.21 µM | IC50 (KG-1): 3.39 µM | bioavailability ([2]; single dose 5 mg/kg IV, read-out: IV bioavailability): 100% | bioavailability ([2]; single dose 10 mg/kg IP, read-out: IP bioavailability): 100% | bioavailability ([2]; po, single dose 20 mg/kg orally, read-out: oral bioavailability): 67%

NCCCOc1cc2ccccc2cc1C(=O)NCCOc1cc2ccccc2cc1C(=O)Nc1ccc(F)cc1 [SRS-1003]
IC50 ([1]; Homo sapiens, HEK-293T): 0.41 µM

NCCCOc1cc2ccccc2cc1C(=O)NCCOc1cc2ccccc2cc1C(=O)Nc1ccc(Cl)cc1 [SRS-1002]
IC50 ([1]; Homo sapiens, HEK-293T): 1.55 µM

NCCCOc1cc2ccccc2cc1C(=O)NCCOc1cc2ccccc2cc1C(=O)Nc1ccc(Cl)cc1Cl [SRS-1005]
IC50 ([1]; Homo sapiens, HEK-293T): 1.55 µM

O=C(Nc1ccc(Cl)cc1)c1cc2ccccc2cc1O [napththol AS-E, naphthol AS-E]
bioavailability [3]: low
